Source: patent US20260273004A1, “AGENT AND METHOD FOR MAINTAINING OR IMPROVING CEREBRAL FUNCTION USING CRUDE DRUG” (CEREBRO PHARMA INC., priority 2023, published 2026)

Columns and labels:
[1] = system: BDNF and nerve growth factor (NGF); details: oral administration; rat model of cerebral ischemia/reperfusion; Non-Patent Literature 20; cited from earlier work
[2] = system: mouse models of AD and PD; details: oral administration, Non-Patent Literature 18, 19; cited from earlier work
Tau784 mice = assay: Morris water maze test in Tau784 mice; format: in vivo, mouse; details: Tau784 mice aged 8-10 months; orally, one month; mixture of catechin 0.087 μg, chlorogenic acid 0.036 μg, rutin 0.123 μg, or catechin alone 0.087 μg; FIG. 24
Excerpt: The Tau784 mice are FTD models that express both three-repeat and four-repeat human tau at an adult age (with four-repeat human tau being dominantly expressed) due to the presence of a tau intron mutation (Non-Patent Literature 25: Umeda et al., Am. J. Pathol., (2013), 183[1]:211-25; and Non-Patent Literature 26: Umeda et al., Ann. Clin. Transl. Neurol., (2015), 2[3]:241-55).
To investigate the effect of mãmaki leaf hot water extract, the extract powder was suspended in water at concentrations of 3.33, 0.33, and 0.10 mg/mL by sonication. 300 μL of each suspension (containing 1,000, 100, and 30 μg of powder) was orally administered to male and female Tau784 mice five days a week (Monday to Friday) for one month. As a control, the same amount of water was administered to age-matched Tg and non-Tg littermates. For APP23, Huα-Syn (A53T), and C9-500 mice, a 0.33 mg/mL suspension (100 μg of powder/[…]) was orally administered to male and female mice for one month. […]
The spatial reference memory of each mouse was evaluated using the Morris water maze test (Non-Patent Literature 34: Kelley Bromley-Brits et al., J. Vis. Exp., (2011), 53e2920). […] Each mouse was placed in the pool and allowed to swim for 60 seconds, and the time taken to reach the platform was measured (referred to as escape latency). […]

Compound | expression of BDNF and nerve growth factor (NGF) [1] | memory and motor function [2] | memory (Morris water maze test) (Tau784 mice)
O=C(/C=C/c1ccc(O)c(O)c1)O[C@@H]1C[C@](O)(C(=O)O)C[C@@H](O)[C@H]1O [Chlorogenic acid, 5-O-caffeoylquinic acid] | promote the expression of BDNF and nerve growth factor (NGF) | improves their memory and motor function | –
catechin | – | – | showed a weaker effect than the polyphenol mixture
